Data reported in ChEMBL document CHEMBL5727273, “Heteroaryldiazepine derivatives as RSV inhibitors” (2019).

Experiment: RSV assay: Following extensive parameter testing, the final assay is run as follows: HEp-2 cells are seeded into the inner 60 wells of a 96-well plate at 8,000 cells per well in a volume of 50 μL using Growth Media (DMEM without phenol red, 1% L-Glut, 1% Penn/Strep, 1% nonessential amino acids, 10% FBS). 2-fold serial dilutions of control and test compounds are added to the wells in duplicate in a total volume of 25 μL. Viral stock is then added to the wells in a volume of 25 μL, bringing the total volume of each well to 100 μL. Each 96-well plate has a control column of 6 wells with cells and virus but no compound (negative control, max CPE), a column with cells but no compound or virus (positive control, minimum CPE), and a column with no cells or virus or compound (background plate/reagent control). The control wells with cells but no virus are given an additional 25 uL of growth media containing an equal quantity of sucrose as those wells receiving the viral stock in order to keep consistent in media and volume conditions. The outer wells of the plate are filled with 125 μL of growth media to act as a thermal and evaporative moat around the test wells. Following a 4-day incubation period, the plates are read using ATPlite (50 uL added per well), which quantifies the amount of ATP (a measure of cell health) present in each well. Assay plates are read using the Envision luminometer.

Row | SMILES | EC50 (HEp-2) [nM] | EC50 [nM]
1 | O=C1Nc2cccnc2C(c2ccccc2)=NC1Nc1nnc(-c2ccccc2)o1 (centres undefined) | > 800 | 
2 | O=C1Nc2ncccc2C(c2ccccc2)=NC1Nc1nnc(-c2ccc(F)cc2)o1 (centres undefined) | > 800 | 
3 | O=C(NC1N=C(c2ccccc2)c2ccsc2NC1=O)OCc1ccccc1 (centres undefined) | 600 | 
4 | NC1N=C(c2ccccc2)c2sccc2NC1=O (centres undefined) | 600 | 
5 | O=C1Nc2cnccc2C(c2ccccc2)=NC1Nc1nnc(-c2ccc(F)cc2)o1 (centres undefined) | > 800 | 
6 | Cc1sc2c(c1C)C(c1ccccc1)=NC(Nc1nnc(-c3ncc(C(F)(F)F)cc3N3CCOCC3)o1)C(=O)N2 (centres undefined) | 600 | > 800
7 | Cc1cc(C(=O)c2ccccc2)c(N)s1 | < 400 | > 800
